The source of these data is patent publication US20140094482A1, “BENZAZOCINE-RING COMPOUND INHIBITION OF TAU HYPERPHOSPHORYLATION” (priority 2012, published 2014).

One experiment concerns the target mu opioid receptor (MOR) (Homo sapiens, UniProt P35372). To be noted: cited from earlier work.
The target of another experiment is kappa-opioid receptor (Homo sapiens, UniProt P41145). To be noted: cited from earlier work.
Experiment [1] addresses FLNA pentapeptide of SEQ ID NO: 1 (Bn-VAKGL) (Homo sapiens, UniProt P21333). Nature of the experiment: FITC-NLX-based FLNA screening assay (inhibition of FITC-naloxone binding to Bn-VAKGL). The following applies: read-out: Percent Inhibition.

Sequence of mu opioid receptor (MOR) (P35372 whole entry, species assumed): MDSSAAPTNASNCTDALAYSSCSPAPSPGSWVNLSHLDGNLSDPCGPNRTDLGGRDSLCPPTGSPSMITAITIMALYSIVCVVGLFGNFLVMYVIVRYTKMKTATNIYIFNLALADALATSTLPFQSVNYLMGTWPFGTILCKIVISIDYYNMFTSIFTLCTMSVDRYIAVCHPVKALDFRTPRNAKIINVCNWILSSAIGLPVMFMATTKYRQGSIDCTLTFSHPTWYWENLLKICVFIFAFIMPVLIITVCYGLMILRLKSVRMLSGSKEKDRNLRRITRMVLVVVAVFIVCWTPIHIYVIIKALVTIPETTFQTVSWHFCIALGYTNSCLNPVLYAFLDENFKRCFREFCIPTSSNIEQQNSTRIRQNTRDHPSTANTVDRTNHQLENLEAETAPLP
Sequence of kappa-opioid receptor (P41145 whole entry): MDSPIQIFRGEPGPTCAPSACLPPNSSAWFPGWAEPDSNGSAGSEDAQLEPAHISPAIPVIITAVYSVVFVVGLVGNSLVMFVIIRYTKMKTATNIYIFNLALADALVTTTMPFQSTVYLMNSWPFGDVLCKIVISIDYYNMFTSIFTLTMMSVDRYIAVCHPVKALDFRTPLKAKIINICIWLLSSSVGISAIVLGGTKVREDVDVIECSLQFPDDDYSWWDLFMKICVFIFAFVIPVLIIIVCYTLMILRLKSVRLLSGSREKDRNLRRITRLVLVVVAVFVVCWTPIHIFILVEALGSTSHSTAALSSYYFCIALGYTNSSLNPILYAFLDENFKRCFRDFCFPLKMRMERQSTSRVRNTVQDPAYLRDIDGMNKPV

As for `Oc1ccc2c3c1O[C@H]1c4[nH]c5ccccc5c4C[C@@]4(O)[C@@H](C2)N(CC2CC2)CC[C@]314` [Naltrindole], on mu opioid receptor (MOR), the “RECEPTOR MU: antagonism/agonism and relative potency” value is “−”. Further, the “RECEPTOR KAPPA: antagonism/agonism and relative potency” value at kappa-opioid receptor was “−”. Moreover, in experiment [1], the inhibition at 1 µM stood at 41% and the inhibition at 10 µM amounted to 65%.
